The results in this text go back to patent publication US9173952B2, “Mitochondrial penetrating peptides as carriers for antimicrobials” (priority 2010, dated 2015).

Data set [1] deals with E. faecalis (ATCC 29212). Briefly: microbe, parasite or virus in culture. It counts as cell-based, Enterococcus faecalis. The protocol: (§1) Cell Culturing Conditions. HeLa cells were cultured in MEM alpha (Invitrogen, Carlsbad) supplemented with 10% (v/v) FBS at 37° C. with 5% CO2. Escherichia coli strain JW5503 from the Keio collection^12 (F−, Δ(araD-araB)567, ΔlacZ4787(:rrnB-3), λ^−, ΔtolC732:kan, rph-1, Δ(rhaD-rhaB)568, hsdR514) was grown on solid LB-agar or in LB liquid media supplemented with 50 μg/mL kanamycin at 37° C. Strains harboring the pCA24N plasmid were additionally grown with chloramphenicol at 20 μg/mL. B. subtilis was grown in LB media. S. aureus and E. faecalis were grown in Trypticase Soy Broth (TSB). S. pneumoniae were grown in TSB+5% defibrinated sheep's blood at 37° C. in an atmosphere of 5% CO2.
(§2) Minimum inhibitory concentration (MIC) determinations were performed to characterize the effect of each compound on bacterial growth. Briefly, overnight cultures were subcultured at 1:100 and grown to and OD600 of 0.5. Cells were Diluted 1:10000 into fresh media with test compounds. Cells were incubated for 16 hours at 37° C. Growth was monitored at OD600. Multi-copy suppression of compound toxicity was accomplished by inducing FolA (DHFR) expression from the pCA24N plasmid with 0.1 mM IPTG prior the incubation with test compounds. Compound toxicity was assessed in LB media for E. coli. […]

In data set [2] the test system is B. subtilis. Briefly: microbe, parasite or virus in culture. It counts as cell-based, Bacillus subtilis. The protocol: as §1, §2
The subject of data set [3] is S. pneumoniae (ATCC 49619). Briefly: microbe, parasite or virus in culture. It counts as cell-based, Streptococcus pneumoniae.
Method: Minimum inhibitory concentration (MIC) determinations were performed to characterize the effect of each compound on bacterial growth. Briefly, overnight cultures were subcultured at 1:100 and grown to and OD600 of 0.5. Cells were Diluted 1:10000 into fresh media with test compounds. Cells were incubated for 16 hours at 37° C. Growth was monitored at OD600. […] For S. aureus B. subtilis, S. pneumonaie, and E. faecalis the defined media Mem-alpha minus nucleotides (Invitrogen, Carlsbad Calif.) was used to control for variability in thymidine content of undefined media. The final dilution into media was at 1:2000 for S. pneumoniae, and E. faecalis. 3% laked horse blood was added to the media for S. pnemoniae.
Data set [4] relates to S. aureus (ATCC 29213). As to the kind of experiment: microbe, parasite or virus in culture. It counts as cell-based, Staphylococcus aureus. The protocol:
as §1, §2

In data set [5] the test system is MRSA (ATCC BAA-1720). Briefly: microbe, parasite or virus in culture. Type of data set: cell-based, methicillin-resistant S. aureus. The protocol:
as §1, §2

Data set [6] has as its system E. coli strain JW5503. Briefly: microbe, parasite or virus in culture. It counts as cell-based, Escherichia coli. The procedure:
as §1, §2

Data set [7] in a line: Analysis of cell toxicity (HeLa), CCK-8 viability. Conditions: human, HeLa cells, 72-hour incubation, read-out: LD50 (50% lethal dose, concentration where 50% toxicity is observed). Type of data set: cell-based.
Method: HeLa cells were cultured as described above. Cells were seeded in 96-well flat bottom tissue culture plates (Starsted, N.C.) at a density of 1500 cells per well. The culture media was removed and cells were washed with MEM-alpha (minus nucleotides). […] Cellular viability was analyzed after the indicated times using the CCK-8 viability dye (Dojindo, Rockville, Md.) at an absorbance of 450 nm.
Data set [8] has as its system HeLa cells. Briefly: Measurement of mitochondrial membrane potential (JC-1, flow cytometry). Type of data set: cell-based, human. Conditions: Mtx-Fxr3 16 μM 72 hours, FCCP 10 μM 6 minutes. The procedure:
HeLa cells were seeded in at 6,250 cells per well in 24 well plates. […] Carbonyl cyanide 4-(trifluoromethoxy)phenylhydrazone (FCCP) was added at 10 μM for 6 minutes prior to analysis to disrupt the mitochondrial membrane potential. The mitchondrial membrane potential sensitive dye JC-1 (Invitrogen, Carlsbad Calif.) was added at 5 μg/mL for 10 minutes at 37° C. Cells were washed with PBS and harvested as described above. Samples were subsequently analyzed by flow cytometry on a BD FACSCanto flow cytometer (BD Biosciences) with excitation at 488 nm and emmission wavelengths of 530 nm and 585 nm collected. Ratio of these two emmission wavelengths was used to measure changes in mitochondrial membrane potential.
On the technique in general: A flow cytometer gives signals particle by particle.

The subject of data set [9] is HeLa cells. Briefly: Measurement of cellular ATP levels. It counts as cell-based, human. Conditions: Mtx-Fxr3 16 μM 16 hours, rotenone 100 nM 1 hour. The procedure:
HeLa cells were seeded at a density of 50,000 cells per well one day prior to experiments. […] After treatment, cells were washed with PBS, harvested with trypsin/EDTA for 7 min at 37° C. Complete media was added to terminate the reaction and cells were collected by centrifugation (8 min at 700×g) and washed with PBS. Cells were lysed with 40 μl 1% TCA/4 mM EDTA for 20 minutes on ice, followed by 20 μl 1M Tris buffer pH 7.4. ATP levels were assessed using the ATP Bioluminescent Assay Kit (Sigma, Saint Louis Mich.) and a Spectramax M5 plate reader (Molecular Devices, Sunnyvale Calif.).

≈ marks a conversion by molar mass, not a printed value. Entries after “also recorded” stand apart in the source; their conditions may differ. Where two headings read alike, the source gives them in different places. Starred links: 1 amine or outer side, 2 acyl side, 3 side chain; linkers in the order of their positions; H or OH if unused. Non-standard residues stand in square brackets, D forms with d. Residues, ends and D or L forms follow the SMILES beside them. *: point of attachment. DAMPA = CN(Cc1cnc2nc(N)nc(N)c2n1)c1ccc(C(=O)*)cc1; γGlu = O=C(O)[C@H](CCC(=O)[*:2])N[*:1]; Cha = N[C@@H](CC1CCCCC1)C(=O)O

For `N=C(N)NCCC[C@@H](NC(=O)[C@H](CC1CCCCC1)NC(=O)[C@@H](CCCNC(=N)N)NC(=O)[C@H](CC1CCCCC1)NC(=O)[C@@H](CCCNC(=N)N)NC(=O)[C@@H](N)CC1CCCCC1)C(N)=O` [Fxr3, FxrFxrFxr] (H-[Cha][dR][Cha][dR][Cha][dR]-NH2; N-terminus assumed), the MIC in data set [1] (ATCC 29212) was greater than 16 µM; in [2], greater than 16 µM; in data set [3] (ATCC 49619), greater than 16 µM; in [4] (ATCC 29213) it was greater than 32 µM; in data set [5] (ATCC BAA-1720) it was greater than 32 µM.
As for `CN(Cc1cnc2nc(N)nc(N)c2n1)c1ccc(C(=O)N[C@@H](CCC(=O)N[C@@H](CC2CCCCC2)C(=O)N[C@H](CCCNC(=N)N)C(=O)N[C@@H](CC2CCCCC2)C(=O)N[C@H](CCCNC(=N)N)C(=O)N[C@@H](CC2CCCCC2)C(=O)N[C@H](CCCNC(=N)N)C(N)=O)C(=O)O)cc1` [Mtx-Fxr3, Mtx-FxrFxrFxr] ({DAMPA-γGlu}-[Cha][dR][Cha][dR][Cha][dR]-NH2), in data set [6] (strain JW5503, 16 h), the “MIC (minimum inhibitory concentration)” value is 0.5 µM (≈ 0.691 µg/mL). In addition, the CC50 at 72 h in data set [7] is greater than 16 µM. Moreover, in data set [8], the “effect on mitochondrial membrane potential” value was “not perturb the mitochondrial membrane potential; also recorded: did not affect”. Moreover, the “effect on cellular ATP levels” value in [9] was “did not result in a decrease in cellular ATP levels; also recorded: did not affect”.
For `N#CC(C#N)=NNc1ccc(OC(F)(F)F)cc1` [FCCP, Carbonyl cyanide 4-(trifluoromethoxy)phenylhydrazone, reference compound], the “effect on mitochondrial membrane potential” value in data set [8] is “significant decrease in membrane potential”.
Take `CN(Cc1cnc2nc(N)nc(N)c2n1)c1ccc(C(=O)N[C@@H](CCC(=O)O)C(=O)O)cc1` [Mtx, methotrexate, reference compound]: the MIC is greater than 32 µM in data set [6] (Escherichia coli, JW5503, 16 h, read-out: MIC (minimum inhibitory concentration)); 4 µM (≈ 1.82 µg/mL) in [1] (Enterococcus faecalis, ATCC29212, E. faecalis (ATCC 29212), Mem-alpha minus nucleotides); greater than 16 µM in [2] (Bacillus subtilis, B. subtilis, Mem-alpha minus nucleotides); 0.5 µM (≈ 0.227 µg/mL) in data set [3] (Streptococcus pneumoniae, ATCC49619, S. pneumoniae (ATCC 49619), Mem-alpha minus nucleotides, 3% laked horse blood); greater than 32 µM in [4] (Staphylococcus aureus, ATCC29213, S. aureus (ATCC 29213), Mem-alpha minus nucleotides); greater than 32 µM in data set [5] (Staphylococcus aureus, MRSA (ATCC BAA-1720)).
